This passage reports cytotoxicity results from ChEMBL document CHEMBL3507680, “University of Dundee, Gates Library screen for HepG2 cell viability”.

The nature of the data set: Human HepG2 cell viability assay in 384 well format. The settings on record: HepG2 cells, read-out: Inhibition. On the set-up: dose 125 nL, time 70.5 hour; cytotoxicity at 70.5 h: concentration not given beside the values. Format: toxicity, cell-based.

For the compound `O=C(Cc1ccn[nH]1)N1CCc2cc(Br)sc2C1`, the cytotoxicity at 70.5 h is -6.46%.
For `Cc1noc(C)c1CNC1CCN(c2ccccc2OC(F)F)C1` (centres undefined) the value was -3.18%.
Turning to `CCOc1ccc(N(CCC#N)C(=O)c2ccc(OC)nc2)cc1`, the cytotoxicity at 70.5 h came to 1.85%.
For `CC(NC(=O)NC1CCN(Cc2ccccn2)CC1)c1ccco1` (centres undefined) the value was -1.3%; for `Cc1ccc(C(C)NC(=O)N2CCN(S(C)(=O)=O)CC2)o1` (centres undefined), 1.52%.
The figure for `CC(NC(=O)NC1CCN(Cc2ccccc2)CC1)c1nncn1C` (centres undefined) is 2.2%; for `CC(C)CN1CCC(C(=O)NCCNC(=O)c2ccoc2)CC1` it is -1.22%.
In the case of `CC(C)CN1CCC(C(=O)NCCNC(=O)c2ccccc2)CC1`, the cytotoxicity at 70.5 h is -4.76%.
With `CC(C)NC(=O)CCNC(=O)c1c(Br)c2ccccc2n1C`, the cytotoxicity at 70.5 h is -0.338%.
The figure for `N#Cc1cnn(C(=O)CCCOc2ccccc2Cl)c1N` is 9.75%.
As to `COCc1cccc(CNc2cnn(C(C)(C)C)c(=O)c2Cl)c1`, the cytotoxicity at 70.5 h was 41%.
For `Cc1nc(CC(=O)N2CCN(C)CC2c2ccccc2)cs1` (centres undefined) the value was -0.955%; for `COc1ccccc1OCC(=O)n1ncc(C#N)c1N`, 9.32%.
For `COCc1ccc(CNc2cnn(C(C)(C)C)c(=O)c2Cl)cc1` the value was 19.8%; for `CC(=O)c1ccc(N2CCN(C(=O)NC(C)c3ccc(C)o3)CC2)cc1` (centres undefined), -3.78%.
For `O=S(=O)(Nc1ccc(N2CCOCC2)cn1)c1ccc(F)cc1` the value was 9.02%.
With `CC(NC(C)(C)CN)c1ccccc1` (centres undefined), the cytotoxicity at 70.5 h was -0.00601%.
On to `Cc1ccc(CNC(C)c2cc(F)ccc2N2CCN(C)CC2)o1` (centres undefined), for which the cytotoxicity at 70.5 h worked out at 0.758%.
Turning to `Cc1ccc(C)c(SCC(=O)Nc2cccc(C(=O)N(C)C)n2)c1`, the cytotoxicity at 70.5 h is 11.9%.
The figure for `Cc1ccc(C)c(CC(=O)Nc2cccc(C(=O)N(C)C)n2)c1` is 5.58%; for `Cc1cc(F)cc2c(NCC(C)(C)C(N)=O)c(C#N)cnc12` it is 11.6%; for `CCS(=O)(=O)NCCNc1c(C#N)cnc2c(C)cc(F)cc12` it is 2.54%.
The figure for `CC(C)(C)NC(=O)N1CCC(NC(=O)Cc2cccnc2)CC1` is -3.09%.
In the case of `CCc1cccc(CC(=O)NC2CCN(C(=O)NC(C)(C)C)CC2)c1`, the cytotoxicity at 70.5 h is 1.52%.
Consider `N#CCCCS(=O)(=O)NC(=O)c1cccc(Cl)c1F`, for which the cytotoxicity at 70.5 h is -2.7%.
For `Cc1csc(N2CCCN(C(=O)c3cccs3)CC2)n1` the value was 3.15%; for `COc1cc(CC(=O)Nc2cccc(C(=O)N(C)C)n2)ccc1C`, 46.5%; for `CCOc1ccc(N(CCC#N)C(=O)c2ccc(SC)nc2)cc1`, -4%.
The figure for `CC(NC(=O)NC1CCN(Cc2ccccn2)CC1)c1nncn1C` (centres undefined) is -2%; for `COc1ccc(N(C)C(=O)C2CN(C)CCO2)cc1F` (centres undefined) it is -12.3%; for `Cn1ccnc1CN1CCCCC1c1nc(-c2ccccc2)no1` (centres undefined) it is -10.6%.
Regarding `COc1ccc2c(c1)CCCN2C(=O)c1cccc(N(C)C)c1`, the cytotoxicity at 70.5 h was found to be 3.26%.
For `Cc1cc(C2CCCN2C(=O)COc2ccc(CC#N)cc2)no1` (centres undefined) the value was -7.35%; for `O=C(Nc1c(N2CCCC2)cccc1N1CCCC1)c1ccccn1`, -12.8%.
The figure for `O=C1OCCN1CCSc1nnnn1C1CCOCC1` is -17.6%; for `COc1cc(Br)c(CNC(C)c2nnc3n2CCC3)cc1OC` (centres undefined) it is 10.6%.
With `O=C(C[S+]([O-])Cc1csc(C2CCCC2)n1)NC1CCCC1` (centres undefined), the cytotoxicity at 70.5 h was -1.25%.
The figure for `CC(C)(C)c1nccc(N2CCC(OCCN3CCCCC3)C2)n1` (centres undefined) is -6.69%; for `CC(=O)N1CCCc2cc(Nc3nccn(C)c3=O)ccc21` it is -7.29%; for `Cn1ccnc(Nc2ccc3c(c2)CCN3C(=O)c2ccoc2)c1=O` it is -10%.
The figure for `Cn1ccnc(Nc2ccc3c(c2)CCN3C(=O)c2cccnc2)c1=O` is -11.5%.
Consider `CCOc1c(Br)cc(CNC(C)c2nnc3n2CCC3)cc1OC` (centres undefined), for which the cytotoxicity at 70.5 h was -4.89%.
The figure for `CC(C)S(=O)(=O)NC(=O)CC(c1ccccc1)C(F)(F)F` (centres undefined) is -9.01%; for `CCc1nc(Cn2nc(COC)oc2=O)cs1` it is -9.78%.
For `FC(F)(F)Cn1nnnc1SCCN1CCCCC1` the value was -7.69%; for `COc1ccc2c(c1)CC(NCc1cccc(CO)c1)CC2` (centres undefined), -6.72%; for `Cc1ccnc(N2CCC(OCCN3CCCCC3)C2)n1` (centres undefined), -8.76%.
As to `c1cnc(N2CCC(OCCN3CCCCC3)C2)nc1` (centres undefined), the cytotoxicity at 70.5 h was -10.2%.
As to `Cc1cc(C)nc(N2CCC(OCCN3CCCCC3)C2)n1` (centres undefined), the cytotoxicity at 70.5 h was found to be 8.57%.
`CN(c1cccnc1N1CCCC1)S(=O)(=O)c1cnn(C)c1`: the cytotoxicity at 70.5 h came to 5.43%.
The figure for `CC(Cn1cccn1)NCC(=O)NC1CCOCC1` (centres undefined) is 6.94%; for `Cc1nn(C)c(C)c1NC(=O)CNC(c1ccc(F)cc1)C1CCC1` (centres undefined) it is -7.04%; for `CCCN(CC(=O)OC)C(=O)c1sc(C)nc1C` it is -15.4%.
The figure for `Cc1ccc2nc(CN(C)Cc3ccc(C)o3)cc(=O)n2c1` is -15%.
Take `Cc1ccc2nc(CN(Cc3ccc(C)o3)C(C)C)cc(=O)n2c1`: the cytotoxicity at 70.5 h is -11.5%.
The figure for `Cc1ccc2nc(CN(Cc3ccc(C#N)cc3)C(C)C)cc(=O)n2c1` is 20.2%.
Take `CN(CC(=O)Nc1cc(C(F)(F)F)c[nH]c1=O)Cc1ccccc1`: the cytotoxicity at 70.5 h is -11.2%.
As for `CN(C)C(CNS(=O)(=O)c1cnn(C)c1)c1cccc(F)c1` (centres undefined), the cytotoxicity at 70.5 h is -1.66%.
The figure for `CCCC(NC(=O)c1ccccn1)c1nnc2ccccn12` (centres undefined) is -12.2%.
The figure for `Cc1ncc2c(n1)CN(Cc1ncc(C(C)(C)C)o1)CC2` is -13.9%.
For `CN(Cc1ccccn1)C(=O)Nc1cc(C(F)(F)F)c[nH]c1=O`, the cytotoxicity at 70.5 h is -1.8%.
Turning to `Cc1cc(C)c(CNC(=O)N2CCCN(C(=O)C(C)C)CC2)c(C)c1`, the cytotoxicity at 70.5 h amounted to 15.9%.
For `CCCC(=O)NCC(=O)Nc1cc(F)ccc1SCC(F)F` the value was 2.19%.
As for `CC(C(=O)N(Cc1ccc(F)cc1)CC(F)(F)F)S(C)(=O)=O` (centres undefined), the cytotoxicity at 70.5 h is -1.63%.
For `COc1cc2c(nn1)CCN(Cc1ncc(C(C)(C)C)o1)C2` the value was -5.34%.
Regarding `CCc1ccsc1CNC(=O)CNC(=O)C(C)(C)C`, the cytotoxicity at 70.5 h is -7.92%.
`CCC(CO)NC(=O)Nc1cc(F)ccc1Br` (centres undefined): the cytotoxicity at 70.5 h was -9.27%.
The figure for `O=C1CCCN1CCCN1CCCC1Cn1cccn1` (centres undefined) is 8.99%.
For the compound `CCn1ccnc1CN1CCN(c2ccc3nnc(C)n3n2)CC1`, the cytotoxicity at 70.5 h was -8.35%.
The figure for `COc1ccccc1NC(=O)CC(C)NCCc1sc(C)nc1C` (centres undefined) is 8.63%.
For `CCc1c(NCc2ccncc2)cnn1CC(C)C` the value was -5.95%; for `COC(=O)CCCN(C)C(c1cccnc1)c1ccc(F)cc1F` (centres undefined), 5.6%.
The figure for `Cc1ccc(S(=O)(=O)NC(C)(C)CN)c(F)c1` is -1.04%.
For the compound `CCOc1c(Br)cc(CNCCc2nnc3n2CCCCC3)cc1OC`, the cytotoxicity at 70.5 h was -10.5%.
